Results reported in patent publication EP1007530B1, “6-O-SUBSTITUTED ERYTHROMYCIN COMPOUNDS AND METHOD FOR MAKING SAME” (ABBOTT LABORATORIES, priority 1996, dated 1997).

Experiments:
Assay in all cases: In vitro assay of antibacterial activity (agar dilution MIC)
Assay type in all cases: cell-based
[1] = system: Actinetobacter calcoaceticus CMX 669; settings: BHI agar, 35-37 °C, 20 to 24 hours, unit assumed
Procedure: (§1) Representative compounds of the present invention were assayed in vitro for antibacterial activity as follows: Twelve petri dishes containing successive aqueous dilutions of the test compound mixed with 10 mL of sterilized Brain Heart Infusion (BHI) agar (Difco 0418-01-5) were prepared. Each plate was inoculated with 1:100 (or 1:10 for slow-growing strains, such as Micrococcus and Streptococcus) dilutions of up to 32 different microorganisms, using a Steers replicator block. The inoculated plates were incubated at 35-37 °C for 20 to 24 hours, In addition, a control plate, using BHI agar containing no test compound, was prepared and incubated at the beginning and end of each test.
(§2) An additional plate containing a compound having known susceptibility patterns for the organisms being tested and belonging to the same antibiotic class as the test compound was also prepared and incubated as a further control, as well as to provide test-to-test comparability.
(§3) After incubation, each plate was visually inspected. The minimum inhibitory concentration (MIC) was defined as the lowest concentration of drug yielding no growth, a slight haze, or sparsely isolated colonies on the inoculum spot as compared to the growth control. […]

[2] = system: Staphylococcus aureus A5177; settings: BHI agar, 35-37 °C, 20 to 24 hours, unit assumed
Procedure: as §1, §2, §3

Escherichia coli JUHL = settings: BHI agar, 35-37 °C, 20 to 24 hours, in µg/mL (unit assumed)
Procedure: as §1
as §2, with “comparability. Erythromycin A was used for this purpose.” for “comparability.”
as §3

[3] = system: Streptococcus pyogenes PIU 2548; settings: BHI agar, 35-37 °C, 20 to 24 hours, unit assumed
Procedure: as §1
as §2, with “comparability. Erythromycin A was used for this purpose.” for “comparability.”
as §3

[4] = system: Pseudomonas aeruginosa DPHD-2862; settings: BHI agar, 35-37 °C, 20 to 24 hours, unit assumed
Procedure: as §1
as §2, with “comparability. Erythromycin A was used for this purpose.” for “comparability.”
as §3

[5] = system: Streptococcus pyogenes 930; settings: BHI agar, 35-37 °C, 20 to 24 hours, unit assumed
Procedure: as §1
as §2, with “comparability. Erythromycin A was used for this purpose.” for “comparability.”
as §3

[6] = system: Providencia struartii CMX 640; settings: BHI agar, 35-37 °C, 20 to 24 hours, unit assumed
Procedure: as §1
as §2, with “comparability. Erythromycin A was used for this purpose.” for “comparability.”
as §3

Escherichia coli H560 = settings: BHI agar, 35-37 °C, 20 to 24 hours, unit assumed
Procedure: as §1
as §2, with “comparability. Erythromycin A was used for this purpose.” for “comparability.”
as §3

[7] = system: Mycobacterium smegmatis ATCC 114; settings: BHI agar, 35-37 °C, 20 to 24 hours, unit assumed
Procedure: as §1
as §2, with “comparability. Erythromycin A was used for this purpose.” for “comparability.”
as §3

[8] = system: Pseudomonas aeruginosa BMH10; settings: BHI agar, 35-37 °C, 20 to 24 hours, in µg/mL (unit assumed)
Procedure: as §1
as §2, with “comparability. Erythromycin A was used for this purpose.” for “comparability.”
as §3

[9] = system: Enterobacter aerogenes ATCC 13048; settings: BHI agar, 35-37 °C, 20 to 24 hours, unit assumed
Procedure: as §1
as §2, with “comparability. Erythromycin A was used for this purpose.” for “comparability.”
as §3

[10] = system: Pseudomonas aeruginosa K799/WT; settings: BHI agar, 35-37 °C, 20 to 24 hours, unit assumed
Procedure: as §1
as §2, with “comparability. Erythromycin A was used for this purpose.” for “comparability.”
as §3

[11] = system: Enterococcus faecium ATCC 8043; settings: BHI agar, 35-37 °C, 20 to 24 hours, unit assumed
Procedure: as §1
as §2, with “comparability. Erythromycin A was used for this purpose.” for “comparability.”
as §3

Pseudomonas capacia 2961 = settings: BHI agar, 35-37 °C, 20 to 24 hours, in µg/mL (unit assumed)
Procedure: as §1
as §2, with “comparability. Erythromycin A was used for this purpose.” for “comparability.”
as §3

[12] = system: Streptococcus agalactiae CMX 508; settings: BHI agar, 35-37 °C, 20 to 24 hours, unit assumed
Procedure: as §1
as §2, with “comparability. Erythromycin A was used for this purpose.” for “comparability.”
as §3

[13] = system: Staphylococcus aureus CMX 553; settings: BHI agar, 35-37 °C, 20 to 24 hours, unit assumed
Procedure: as §1
as §2, with “comparability. Erythromycin A was used for this purpose.” for “comparability.”
as §3

[14] = system: Staphylococcus aureus 1775; settings: BHI agar, 35-37 °C, 20 to 24 hours, unit assumed
Procedure: as §1
as §2, with “comparability. Erythromycin A was used for this purpose.” for “comparability.”
as §3

Escherichia coli DC-2 = settings: BHI agar, 35-37 °C, 20 to 24 hours, unit assumed
Procedure: as §1
as §2, with “comparability. Erythromycin A was used for this purpose.” for “comparability.”
as §3

[15] = system: Staphylococcus aureus ATCC 6538P; settings: BHI agar, 35-37 °C, 20 to 24 hours, unit assumed
Procedure: as §1
as §2, with “comparability. Erythromycin A was used for this purpose.” for “comparability.”
as §3

Candida albicans CCH 442 = settings: BHI agar, 35-37 °C, 20 to 24 hours, unit assumed
Procedure: as §1
as §2, with “comparability. Erythromycin A was used for this purpose.” for “comparability.”
as §3

Escherichia coli KNK 437 = settings: BHI agar, 35-37 °C, 20 to 24 hours, unit assumed
Procedure: as §1
as §2, with “comparability. Erythromycin A was used for this purpose.” for “comparability.”
as §3

[16] = system: Micrococcus luteus ATCC 9341; settings: BHI agar, 35-37 °C, 20 to 24 hours, unit assumed
Procedure: as §1
as §2, with “comparability. Erythromycin A was used for this purpose.” for “comparability.”
as §3

[17] = system: Streptococcus bovis A-5169; settings: BHI agar, 35-37 °C, 20 to 24 hours, unit assumed
Procedure: as §1
as §2, with “comparability. Erythromycin A was used for this purpose.” for “comparability.”
as §3

[18] = system: Staphylococcus aureus CMX 642A; settings: BHI agar, 35-37 °C, 20 to 24 hours, unit assumed
Procedure: as §1
as §2, with “comparability. Erythromycin A was used for this purpose.” for “comparability.”
as §3

[19] = system: Pseudomonas aeruginosa 5007; settings: BHI agar, 35-37 °C, 20 to 24 hours, unit assumed
Procedure: as §1
as §2, with “comparability. Erythromycin A was used for this purpose.” for “comparability.”
as §3

[20] = system: Staphylococcus aureus NCTC10649M; settings: BHI agar, 35-37 °C, 20 to 24 hours, unit assumed
Procedure: as §1
as §2, with “comparability. Erythromycin A was used for this purpose.” for “comparability.”
as §3

[21] = system: Klebsiella pneumoniae ATCC 8045; settings: BHI agar, 35-37 °C, 20 to 24 hours, unit assumed
Procedure: as §1
as §2, with “comparability. Erythromycin A was used for this purpose.” for “comparability.”
as §3

[22] = system: Streptococcus pyogenes EES61; settings: BHI agar, 35-37 °C, 20 to 24 hours, unit assumed
Procedure: as §1
as §2, with “comparability. Erythromycin A was used for this purpose.” for “comparability.”
as §3

[23] = system: Staphylococcus epidermidis 3519; settings: BHI agar, 35-37 °C, 20 to 24 hours, unit assumed
Procedure: as §1
as §2, with “comparability. Erythromycin A was used for this purpose.” for “comparability.”
as §3

Escherichia coli SS = settings: BHI agar, 35-37 °C, 20 to 24 hours, unit assumed
Procedure: as §1
as §2, with “comparability. Erythromycin A was used for this purpose.” for “comparability.”
as §3

[24] = system: Pseudomonas aeruginosa K799/61; settings: BHI agar, 35-37 °C, 20 to 24 hours, unit assumed
Procedure: as §1
as §2, with “comparability. Erythromycin A was used for this purpose.” for “comparability.”
as §3

[25] = system: Staphylococcus aureus A-5278; settings: BHI agar, 35-37 °C, 20 to 24 hours, unit assumed
Procedure: as §1
as §2, with “comparability. Erythromycin A was used for this purpose.” for “comparability.”
as §3

[26] = system: Pseudomonas aeruginosa DPHD-5263; settings: BHI agar, 35-37 °C, 20 to 24 hours, in µg/mL (unit assumed)
Procedure: as §1
as §2, with “comparability. Erythromycin A was used for this purpose.” for “comparability.”
as §3

[27] = system: Micrococcus luteus ATCC 4698; settings: BHI agar, 35-37 °C, 20 to 24 hours, unit assumed
Procedure: as §1
as §2, with “comparability. Erythromycin A was used for this purpose.” for “comparability.”
as §3

## CC[C@H]1OC(=O)[C@H](C)[C@@H](O[C@H]2C[C@@](C)(OC)[C@@H](O)[C@H](C)O2)[C@H](C)[C@@H](O[C@@H]2O[C@H](C)C[C@H](N(C)C)[C@H]2O)[C@](C)(OCC(O)CO)C[C@@H](C)C(=O)[C@H](C)[C@@H](O)[C@]1(C)O (stereo partly shown) [Example 3, Compound of Formula (X): X is =O, R is 2.3-dihydroxypropyl]
[1]
  MIC: 12.5 µg/mL
[2]
  MIC: 50 µg/mL
Escherichia coli JUHL
  MIC: 50
[3]
  MIC: 12.5 µg/mL
[4]
  MIC: > 100 µg/mL
[5]
  MIC: > 100 µg/mL
[6]
  MIC: > 100 µg/mL
Escherichia coli H560
  MIC: 25 µg/mL
[7]
  MIC: 0.78 µg/mL
[8]
  MIC: >100
[9]
  MIC: > 100 µg/mL
[10]
  MIC: > 100 µg/mL
[11]
  MIC: 0.39 µg/mL
Pseudomonas capacia 2961
  MIC: >100
[12]
  MIC: 0.39 µg/mL
[13]
  MIC: 3.1 µg/mL
[14]
  MIC: > 100 µg/mL
Escherichia coli DC-2
  MIC: 50 µg/mL
[15]
  MIC: 1.56 µg/mL
Candida albicans CCH 442
  MIC: > 100 µg/mL
Escherichia coli KNK 437
  MIC: 100 µg/mL
[16]
  MIC: 0.1 µg/mL
[17]
  MIC: 0.2 µg/mL
[18]
  MIC: 1.56 µg/mL
[19]
  MIC: > 100 µg/mL
[20]
  MIC: 1.56 µg/mL
[21]
  MIC: > 100 µg/mL
[22]
  MIC: 0.2 µg/mL
[23]
  MIC: 0.78 µg/mL
Escherichia coli SS
  MIC: 1.56 µg/mL
[24]
  MIC: 1.56 µg/mL
[25]
  MIC: > 100 µg/mL
[26]
  MIC: > 100
[27]
  MIC: 1.56 µg/mL

## CC[C@H]1OC(=O)[C@H](C)[C@@H](O[C@H]2C[C@@](C)(OC)[C@@H](O)[C@H](C)O2)[C@H](C)[C@@H](O[C@@H]2O[C@H](C)C[C@H](N(C)C)[C@H]2O)[C@](C)(OCC(O)Cn2ccnc2)C[C@@H](C)C(=O)[C@H](C)[C@@H](O)[C@]1(C)O (stereo partly shown) [Example 5, Compound of Formula (X): X is =O, R is 2-hydroxy-3-(imidazol-1-yl)propyl]
[1]
  MIC: 12.5 µg/mL
[2]
  MIC: 12.5 µg/mL
Escherichia coli JUHL
  MIC: 25
[4]
  MIC: > 100 µg/mL
[5]
  MIC: > 100 µg/mL
[6]
  MIC: > 100 µg/mL
Escherichia coli H560
  MIC: 50 µg/mL
[7]
  MIC: 1.56 µg/mL
[8]
  MIC: 100
[9]
  MIC: 100 µg/mL
[10]
  MIC: > 100 µg/mL
[11]
  MIC: 0.39 µg/mL
Pseudomonas capacia 2961
  MIC: > 100
[12]
  MIC: 0.1 µg/mL
[13]
  MIC: 0.78 µg/mL
[14]
  MIC: > 100 µg/mL
Escherichia coli DC-2
  MIC: 50 µg/mL
[15]
  MIC: 0.78 µg/mL
Candida albicans CCH 442
  MIC: > 100 µg/mL
Escherichia coli KNK 437
  MIC: 50 µg/mL
[16]
  MIC: 0.1 µg/mL
[17]
  MIC: 0.05 µg/mL
[18]
  MIC: 0.78 µg/mL
[19]
  MIC: > 100 µg/mL
[20]
  MIC: 0.78 µg/mL
[21]
  MIC: 100 µg/mL
[22]
  MIC: 0.05 µg/mL
[23]
  MIC: 1.56 µg/mL
Escherichia coli SS
  MIC: 0.78 µg/mL
[24]
  MIC: 1.56 µg/mL
[25]
  MIC: > 100 µg/mL
[26]
  MIC: > 100
[27]
  MIC: 3.1 µg/mL
